Here are results for two molecules from BindingDB's records for doi:10.7270/Q2JQ0ZGP (Nmmlsc, 2010).

pEC50: −log10 of the molar value.

The target of the test is 60S ribosomal protein L19-A (Saccharomyces cerevisiae (strain ATCC 204508 / S288c), UniProt P0CX82). The test can be described thus: Dose response follow up of MLPCN hits, RPL19A GFP fusion, TOR pathway (AID 2740).
Chain of 60S ribosomal protein L19-A (P0CX82 whole entry, the tested form may be a part): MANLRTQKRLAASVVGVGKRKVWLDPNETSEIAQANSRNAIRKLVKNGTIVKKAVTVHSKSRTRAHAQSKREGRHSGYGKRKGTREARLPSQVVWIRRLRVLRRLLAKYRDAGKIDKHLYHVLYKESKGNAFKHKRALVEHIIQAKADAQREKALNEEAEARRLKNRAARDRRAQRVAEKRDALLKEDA

`O=C1NC(=S)NC(=O)C1=Cc1ccc2c(c1)CCN2CCCCl` [5-[[1-(3-chloropropyl)-2,3-dihydroindol-5-yl]methylidene]-2-sulfanylidene-1,3-diazinane-4,6-dione] gave a pEC50 of under 4.48.

Turning to `CS(=O)(=O)c1nc(-c2cccs2)cc(C(F)(F)F)n1` [MLS000044645], the pEC50 was under 4.48.
